Measurements taken from patent US10106542B2, “Substituted 6,7-dihydropyrazolo[1,5-a]pyrazines as negative allosteric modulators of mGluR2 receptors” (Janssen Pharmaceutica NV, priority 2013, dated 2018).

Assays:
[1] = tested on: rat hippocampal brain slices; experiment: Reversal of mGluR2-agonism (LY-354740-depressed fEPSP) in hippocampal brain slices; format: cell-based
From the text: 7) Reversal of mGluR2-Agonism in Hippocampal Brain Slices Introduction
Electrophysiology recordings of field excitatory postsynaptic potentials (fEPSPs) in acute hippocampal brain slices represent a model for testing synaptic transmission and plasticity. The effect of Co. No. 1 on synaptic transmission and plasticity in dentate gyms synapses was investigated using this model.
Recordings of fEPSPs were made from hippocampal brain slices using a multi-electrode array (MEA) biochip, and 3-dimensional-(3D) tip electrodes, according to a standard protocol. These recordings were used to monitor glutamate-mediated synaptic transmission (FIG. 4).

Wiga rats = experiment: Reserpine interaction test in rats; format: in vivo, rat; details: Rattus norvegicus, po; Time 60; reserpine 10 mg/kg SC; Wiga rats; read-out: ED50, reversal of reserpine-induced ptosis
Method: 4) Reserpine Interaction Test in Rats
It was investigated to what extent the mydriatic action of test compounds was sufficient to counteract the miosis induced by the monoamines-depleting agent reserpine (10 mg/kg; SC) in Wiga rats.
The effects are illustrated in FIG. 3. […] The reference mGlu2 NAMs RO-4995819 (40 mg/kg, p.o.), RO-4491533 (40 mg/kg, p.o.; 10 mg/kg, s.c.) and [CAS 579473-69-1]

Male Wiga Wistar rats = experiment: Reversal of LY-404039-induced decrease of palpebral opening in apomorphine-challenged rats; format: in vivo; details: Rattus norvegicus, reversal of LY-404039-induced decrease of palpebral opening (cumulative score >26) in apomorphine challenged rats
Method: 6) Reversal of LY-404039-Induced Decrease of Palpebral Opening in Apomorphine-Challenged Rats.
Male Wiga Wistar rats (Crl:WI; Charles River Germany; 220±40 g) were housed under standard laboratory conditions (21±2° C.; 50-65% relative humidity; light-dark cycle set at 12 h; lights on at 6.00 h) and fasted overnight prior to the start of the experiments (tap water remained available ad libitum). During the test period, they were housed in individual cages. The local Ethical Committee approved all studies in compliance with the Declaration of Helsinki. Palpebral opening was scored every 5 min over the first hour after injection of apomorphine (1.0 mg/kg, i.v.) in animals either pretreated or not pretreated with LY-404039 (2.5 mg/kg, s.c.) at 1 h prior to the apomorphine injection. The animals were also pretreated with test compound or solvent at a predefined interval before apomorphine challenge. The score system was: (5) exophthalmos, (4) wide open, (3) open for three-quarters, (2) half open, (1) open for one-quarter, (0) closed. The scores for palpebral opening were cumulated over the 60-min observation period. A cumulative palpebral opening score >26 was selected for drug-induced reversal of the LY-404039-induced decrease of palpebral opening (occurrence in 3.2% of control animals pretreated with LY-404039 (n=154) versus in 99.5% of control rats not pretreated with LY-404039 (n=6335)).
In animals receiving apomorphine alone the median palpebral opening is 43 whereas in animals receiving apomorphine and LY-404039, the median palpebral opening is 17.

rats = experiment: Reversal of the effect of the mGluR2 PAM JNJ-42153605 on scopolamine-induced hyperlocomotion; format: in vivo; details: Rattus norvegicus, 1 h, Route PO, test compound 60 min before recording, criterion total distance >1500 cm
Method: 2) Reversal of the Effect of the mGluR2 PAM JNJ-42153605 on Scopolamine-Induced Hyperlocomotion Apparatus
Motor activity was measured in microprocessor-based motor activity arenas (closed gray PVC cylinders with a height of 39 cm and a diameter of 31 cm). Each arena was placed on an infrared LED (8×8 LEDs) lit box (white PVC squared box; 40×40 cm^2; height 12.5 cm. An infrared-sensitive tube camera and a white light source were mounted to the ceiling above the observation chamber to track the animal. The total distance traveled (cm) was recorded and analyzed using the Noldus Ethovision XT Video Tracking System (Version 7.0.418; Noldus, Wageningen, The Netherlands). The intensity of the light within the activity cages (measured in the centre at the level of the floor) ranged between 4 and 8 LUX.
The rats were pretreated with test compound or vehicle at 60 min before the start of the activity recordings and placed into individual cages. The rats were challenged with JNJ-42153605 (3-(cyclopropylmethyl)-7-(4-phenylpiperidin-1-yl)-8-(trifluoromethyl)[1,2,4]triazolo[4,3-a]pyridine; WO2010/130424; Cid et al. J. Med. Chem. 2012, 55, 8770-8789) (20 mg/kg, i.v.) 30 min before the start of the activity recording combined with scopolamine (0.16 mg/kg, i.v.) just before the start of the activity measurements Immediately after the injection of scopolamine, the rats were placed into the activity monitors and total distance travelled over the first 30 min was measured.
Animals receiving the combination of JNJ-42153605 and scopolamine (n=433) almost always travelled a distance of less than 1500 cm (<1500 cm) (only 2.5% of the control rats travelled a distance of more than 1500 cm (>1500 cm)). On the other hand, animals challenged with scopolamine alone (n=215) always travelled a total distance of more than 1500 cm (>1500 cm) and almost always (in 95.8% of the rats) a distance of more than 4400 cm (>4400 cm). […] For reversal of the inhibitory effect of JNJ-42153605 on the scopolamine-induced hyperlocomotion, two all-or-none criteria were adopted: (1) reversal: total distance >1500 cm; (2) normalization: total distance >4400 cm.

human mGlu2 receptor = molecular target: T1, human mGlu2 receptor (Homo sapiens, UniProt Q14416); experiment: [35S]GTPγS binding assay (mGluR2 negative allosteric modulation); format: biochemical; details: for IC50: membranes from CHO cells transfected with human mGlu2 receptor, glutamate 60 μM, pIC50 = −log IC50 (M), read-out: GTPγS - hmGluR2 anGT pIC50 (converted); for Emax: relative maximal effect: maximal % inhibition relative to the control glutamate response, read-out: GTPγS - hmGluR2 anGT Emax
T1 construct: expressed in transfected cells; host or cells: CHO cells (membrane preparation)
T1 sequence (Q14416 19-872): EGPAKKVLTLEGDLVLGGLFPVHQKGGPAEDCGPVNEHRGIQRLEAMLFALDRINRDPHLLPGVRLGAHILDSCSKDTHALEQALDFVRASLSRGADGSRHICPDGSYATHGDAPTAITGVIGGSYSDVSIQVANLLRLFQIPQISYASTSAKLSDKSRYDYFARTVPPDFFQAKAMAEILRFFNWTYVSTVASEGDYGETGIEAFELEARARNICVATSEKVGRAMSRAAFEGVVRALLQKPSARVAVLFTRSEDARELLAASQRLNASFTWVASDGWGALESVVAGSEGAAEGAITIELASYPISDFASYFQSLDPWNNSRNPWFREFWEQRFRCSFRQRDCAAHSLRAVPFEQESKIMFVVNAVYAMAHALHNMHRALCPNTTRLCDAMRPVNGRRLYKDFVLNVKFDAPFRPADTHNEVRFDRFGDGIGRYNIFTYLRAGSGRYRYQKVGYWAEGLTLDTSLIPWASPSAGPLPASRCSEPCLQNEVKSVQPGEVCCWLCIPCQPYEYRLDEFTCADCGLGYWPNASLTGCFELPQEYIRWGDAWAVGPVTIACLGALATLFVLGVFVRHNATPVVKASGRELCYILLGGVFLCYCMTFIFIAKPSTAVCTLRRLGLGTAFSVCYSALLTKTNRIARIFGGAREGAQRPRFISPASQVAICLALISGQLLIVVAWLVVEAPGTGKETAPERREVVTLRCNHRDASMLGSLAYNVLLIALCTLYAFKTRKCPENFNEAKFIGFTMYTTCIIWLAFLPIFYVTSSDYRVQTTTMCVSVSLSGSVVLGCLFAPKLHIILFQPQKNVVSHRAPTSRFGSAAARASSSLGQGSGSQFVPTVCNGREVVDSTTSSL
How it was run: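 Membranes from butyrate-stimulated CHO cells expressing human mGlu2; 7 μg protein in HEPES pH 7.4, 100 mM NaCl, 3 mM MgCl2, 10 μM GDP, 10 μg/ml saponin. Compound tested against EC80-equivalent glutamate; 0.1 nM [35S]GTPγS, 30 min, 30 °C; filtration, scintillation counting. Data as % of control glutamate response.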

Row | Compound | paired-pulse ratio (PPR) ([1]; 1 μM LY-354740) | depression of fEPSP ([1]; 1 μM, within 15 min of application, dentate gyrus) [%] | ED50 (Wiga rats) [mg/kg] | ED50 (Male Wiga Wistar rats; Route PO) [mg/kg] | ED50 (rats) [mg/kg] | IC50 (human mGlu2 receptor) [M] | Emax (human mGlu2 receptor) [%] | melting point [°C] | ED50 (Male Wiga Wistar rats; Route SC) [mg/kg]
1 | N[C@@]1(C(=O)O)CC[C@H]2[C@H](C(=O)O)[C@H]21 [LY-354740, reference compound] | increase of the paired-pulse ratio | 50 | – | – | – | – | – | – | –
2 | C[C@H]1CN(c2ccc(C(F)(F)F)cc2)C(=O)c2c(-c3ccncc3)cnn21 [compound 2, (7S)-7-Methyl-3-pyridin-4-yl-5-[4-(trifluoromethyl)phenyl]-6,7-dihydropyrazolo [1,5-a]pyrazin-4(5H)-one] | – | – | 0.32 | 0.5 | 1.26 | – | – | – | –
3 | Cc1cc(-c2cnn3c2C(=O)N(c2ccc(C(F)(F)F)c(C)c2)C[C@@H]3C)ccn1 [compound 5] | – | – | – | > 10 | ≥ 2.5 | – | – | – | –
4 | CCOc1cc(N2C[C@H](C)n3ncc(-c4ccnc(C)c4)c3C2=O)ccc1C(F)(F)F [compound 8] | – | – | – | 5 | 5 | 5.89e-09 | 105 | – | –
5 | Cc1cc(-c2cnn3c2C(=O)N(c2ccc(Cl)cc2)C[C@@H]3C)ccn1 [compound 15] | – | – | – | 11.2 | 1.26 | 2.63e-08 | 103 | – | –
6 | CCOc1cc(N2C[C@@H](C)n3ncc(-c4ccnc(C)c4)c3C2=O)ccc1C(F)(F)F [compound 31] | – | – | 0.79 | ≥ 10 | – | 4.37e-07 | 107 | – | –
7 | CCOc1cc(N2CCn3ncc(-c4ccnc(C)c4)c3C2=O)ccc1C(F)(F)F [compound 33] | – | – | 0.5 | > 2.5 | – | 5.75e-07 | 99 | – | –
8 | CCNc1cc(-c2cnn3c2C(=O)N(c2ccc(C(F)(F)F)cc2)C[C@@H]3C)ccn1 [compound 44, (7S)-3-[2-(Ethylamino)-4-pyridyl]-7-methyl-5-[4-(trifluoromethyl)phenyl]-6,7-dihydropyrazolo[1,5-a]pyrazin-4-one] | – | – | – | 0.5 | ≥ 2.5 | 6.17e-09 | 105 | > 300 | –
9 | COc1cc(-c2cnn3c2C(=O)N(c2ccc(C(F)(F)F)cc2)C[C@@H]3C)ccn1 [compound 45, (7S)-3-(2-Methoxy-4-pyridyl)-7-methyl-5-[4-(trifluoromethyl)phenyl]-6,7-dihydropyrazolo[1,5-a]pyrazin-4-one] | – | – | – | 0.79 | 1.26 | – | – | – | –
10 | CCc1cc(-c2cnn3c2C(=O)N(c2ccc(C(F)(F)F)cc2)C[C@@H]3C)ccn1 [compound 46, (7S)-3-(2-Ethyl-4-pyridyl)-7-methyl-5-[4-(trifluoromethyl)phenyl]-6,7-dihydropyrazolo[1,5-a]pyrazin-4-one] | – | – | – | 0.32 | ≥ 2.5 | 6.31e-09 | 105 | 124.6 | –
11 | Cc1cc(-c2cnn3c2C(=O)N(c2ccc(C(F)(F)F)cc2)C[C@@H]3C)cc[n+]1[O-] [compound 140, (7S)-7-Methyl-3-(2-methyl-1-oxido-pyridin-1-ium-4-yl)-5-[4-(trifluoromethyl)phenyl]-6,7-dihydropyrazolo[1,5-a]pyrazin-4-one] | – | – | – | 1.99 | – | 5.13e-07 | 104 | 231.5 | –
12 | CNc1cc(-c2cnn3c2C(=O)N(c2ccc(C(F)(F)F)cc2)C[C@@H]3C)ccn1 [compound 147, (7S)-7-Methyl-3-[2-(methylamino)-4-pyridyl]-5-[4-(trifluoromethyl)phenyl]-6,7-dihydropyrazolo[1,5-a]pyrazin-4-one] | – | – | – | 1.26 | 0.5 | 5.75e-09 | 106 | – | –
13 | Cc1cc(-c2cnn3c2C(=O)N(c2ccc(Cl)cc2Cl)C[C@@H]3C)ccn1 [compound 167] | – | – | – | > 40 | – | 7.59e-07 | 105 | – | –
14 | Cc1cc(-c2cnn3c2C(=O)N(c2ccc(Cl)cc2C)C[C@@H]3C)ccn1 [compound 172] | – | – | – | – | – | 1.05e-06 | 105 | – | > 40
